Reference: paper PMC8963254, “Effects of Lysine N-ζ-Methylation in Ultrashort Tetrabasic Lipopeptides (UTBLPs) on the Potentiation of Rifampicin, Novobiocin, and Niclosamide in Gram-Negative Bacteria” (Antibiotics, 2022)
Read-outs that look alike come from different tables or passages of the source. Non-standard residues stand in square brackets, D forms with d. Residues, ends and D or L forms follow the SMILES beside them. *: point of attachment. Lys(Me3) = C[N+](C)(C)CCCC[C@H](N)C(=O)O; Octanoyl = CCCCCCCC(=O)*

Experiments:
P. aeruginosa PAO1 [1] = assay type: cell-based, Pseudomonas aeruginosa; details: PAO1, 18 h
Procedure, shortened: (§1)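 Turbidity at 590 nm defined growth, from which the MIC was taken. Cultures at a final density of 5 × 10^5 CFU/mL were exposed to a range of compound levels at 37 °C for 18 h in a CLSI-based microdilution format.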

A. baumannii ATCC 17978 = assay type: cell-based, Acinetobacter baumannii; details: ATCC 17978, 18 h
Procedure, shortened: as §1

E. coli ATCC 25922 = assay type: cell-based, Escherichia coli; details: ATCC 25922, 18 h
Procedure, shortened: as §1

MRSA ATCC 33592 = assay type: cell-based, Staphylococcus aureus; details: ATCC 33592, 18 h
Procedure, shortened: as §1

S. aureus ATCC 29213 = assay type: cell-based, Staphylococcus aureus; details: ATCC 29213, 18 h
Procedure, shortened: as §1

E. faecalis ATCC 29212 [2] = assay type: cell-based, Enterococcus faecalis; details: ATCC 29212, 18 h
Procedure, shortened: as §1

[3] = tested on: P. aeruginosa PA259-96196; test: microbe, parasite or virus in culture; assay type: cell-based, Pseudomonas aeruginosa; details: PA259-96196, 18 h
Procedure, shortened: as §1

[4] = tested on: P. aeruginosa PA262-101856; test: microbe, parasite or virus in culture; assay type: cell-based, Pseudomonas aeruginosa; details: PA262-101856, 18 h
Procedure, shortened: as §1

A. baumannii AB027 = test: microbe, parasite or virus in culture; assay type: cell-based, Acinetobacter baumannii; details: AB027, 18 h
Procedure, shortened: as §1

A. baumannii AB92247 = test: microbe, parasite or virus in culture; assay type: cell-based, Acinetobacter baumannii; details: AB92247, 18 h
Procedure, shortened: as §1

E. coli 94393 = test: microbe, parasite or virus in culture; assay type: cell-based, Escherichia coli; details: 94393, 18 h
Procedure, shortened: as §1

E. coli 94474 [5] = test: microbe, parasite or virus in culture; assay type: cell-based, Escherichia coli; details: 94474, 18 h
Procedure, shortened: as §1

MRSE 61589 [6] = assay type: cell-based, Staphylococcus epidermidis; details: 61589, 18 h
Procedure, shortened: as §1

MSSE 81388 [7] = assay type: cell-based, Staphylococcus epidermidis; details: 18 h
Procedure, shortened: as §1

[8] = tested on: P. aeruginosa PA259-96196; assay type: cell-based, Pseudomonas aeruginosa; details: for MICUTBLP: UTBLP alone
Procedure, shortened: (§2)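 Checkerboard synergy assay: antibiotic and OMP combined at varying concentrations with 5 × 10^5 CFU/mL inoculum (final), 37 °C, 18 h; growth read as turbidity at 590 nm. FICI = sum of FICs (MIC in combination / MIC alone); ≤0.5 synergistic, 0.5–4 additive, >4 antagonistic.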

[9] = tested on: P. aeruginosa PA262-101856; assay type: cell-based, Pseudomonas aeruginosa; details: for MICUTBLP: UTBLP alone
Procedure, shortened: as §2

P. aeruginosa PAO1 [10] = assay type: cell-based, Pseudomonas aeruginosa; details: for MICUTBLP: UTBLP alone
Procedure, shortened: as §2

E. coli 94474 [11] = assay type: cell-based, Escherichia coli; details: for MICUTBLP: UTBLP alone
Procedure, shortened: as §2

E. cloacae 118564 = assay type: cell-based, Enterobacter cloacae; details: for MICUTBLP: UTBLP alone
Procedure, shortened: as §2

MRSE 61589 [12] = assay type: cell-based, Staphylococcus epidermidis
Procedure, shortened: as §2

MSSE 81388 [13] = assay type: cell-based, Staphylococcus epidermidis
Procedure, shortened: as §2

E. faecalis ATCC 29212 [14] = assay type: cell-based, Enterococcus faecalis
Procedure, shortened: as §2

[15] = UTBLP in combination with novobiocin
[16] = UTBLP in combination with rifampicin
[17] = novobiocin in combination with the UTBLP
[18] = rifampicin in combination with the UTBLP
[19] = UTBLP in combination with chloramphenicol
[20] = chloramphenicol in combination with the UTBLP
[21] = UTBLP alone, plate with chloramphenicol

- MIC (P. aeruginosa PAO1 [1]): >128 µg/mL
- MIC (A. baumannii ATCC 17978): >128 µg/mL
- MIC (E. coli ATCC 25922): >128 µg/mL
- MIC (MRSA ATCC 33592): >128 µg/mL
- MIC (S. aureus ATCC 29213): >128 µg/mL
- MIC (E. faecalis ATCC 29212 [2]): 128 µg/mL
- MIC [3]: > 128 µg/mL
- MIC [4]: > 128 µg/mL
- MIC (A. baumannii AB027): > 128 µg/mL
- MIC (A. baumannii AB92247): 128 µg/mL
- MIC (E. coli 94393): 128 µg/mL
- MIC (E. coli 94474 [5]): > 128 µg/mL
- MIC (MRSE 61589 [6]): 128 µg/mL
- MIC (MSSE 81388 [7]): 128 µg/mL
- MICUTBLP ([8]; plate with novobiocin): > 128 µg/mL
- MICUTBLP ([8]; plate with rifampicin): > 128 µg/mL
- MICUTBLP [MICcombo] [8, 15]: 16 µg/mL
- MICUTBLP [MICcombo] [8, 16]: 16 µg/mL
- MICantibiotic [MICcombo] [8, 17]: 1024 µg/mL
- MICantibiotic [MICcombo] [8, 18]: 16 µg/mL
- MICUTBLP ([9]; plate with novobiocin): > 128 µg/mL
- MICUTBLP ([9]; plate with rifampicin): > 128 µg/mL
- MICUTBLP [MICcombo] [9, 15]: 16 µg/mL
- MICUTBLP [MICcombo] [9, 16]: 16 µg/mL
- MICantibiotic [MICcombo] [9, 17]: 1024 µg/mL
- MICantibiotic [MICcombo] [9, 18]: 512 µg/mL
- MICUTBLP (P. aeruginosa PAO1 [10]; plate with chloramphenicol): > 128 µg/mL
- MICUTBLP (P. aeruginosa PAO1 [10]; plate with niclosamide): > 128 µg/mL
- MICUTBLP (P. aeruginosa PAO1 [10]; plate with novobiocin): > 128 µg/mL
- MICUTBLP (P. aeruginosa PAO1 [10]; plate with rifampicin): > 128 µg/mL
- MICUTBLP [MICcombo] (P. aeruginosa PAO1 [10]; [19]): 0.25 µg/mL
- MICUTBLP [MICcombo] (P. aeruginosa PAO1 [10]; UTBLP in combination with niclosamide): 0.25 µg/mL
- MICUTBLP [MICcombo] (P. aeruginosa PAO1 [10]; [15]): 0.25 µg/mL
- MICUTBLP [MICcombo] (P. aeruginosa PAO1 [10]; [16]): 0.25 µg/mL
- MICantibiotic [MICcombo] (P. aeruginosa PAO1 [10]; [20]): 16 µg/mL
- MICantibiotic [MICcombo] (P. aeruginosa PAO1 [10]; niclosamide in combination with the UTBLP): 1024 µg/mL
- MICantibiotic [MICcombo] (P. aeruginosa PAO1 [10]; [17]): 512 µg/mL
- MICantibiotic [MICcombo] (P. aeruginosa PAO1 [10]; [18]): 16 µg/mL
- MICUTBLP (E. coli 94474 [11]; plate with novobiocin): > 128 µg/mL
- MICUTBLP (E. coli 94474 [11]; plate with rifampicin): > 128 µg/mL
- MICUTBLP [MICcombo] (E. coli 94474 [11]; [15]): 8 µg/mL
- MICUTBLP [MICcombo] (E. coli 94474 [11]; [16]): 16 µg/mL
- MICantibiotic [MICcombo] (E. coli 94474 [11]; [17]): 64 µg/mL
- MICantibiotic [MICcombo] (E. coli 94474 [11]; [18]): 4 µg/mL
- MICUTBLP (E. cloacae 118564; plate with novobiocin): > 128 µg/mL
- MICUTBLP (E. cloacae 118564; plate with rifampicin): > 128 µg/mL
- MICUTBLP [MICcombo] (E. cloacae 118564; [15]): 16 µg/mL
- MICUTBLP [MICcombo] (E. cloacae 118564; [16]): 16 µg/mL
- MICantibiotic [MICcombo] (E. cloacae 118564; [17]): 32 µg/mL
- MICantibiotic [MICcombo] (E. cloacae 118564; [18]): 4 µg/mL
- MICUTBLP (MRSE 61589 [12]; [21]): 128 µg/mL
- MICUTBLP [MICcombo] (MRSE 61589 [12]; [19]): 0.25 µg/mL
- MICchloramphenicol [MICcombo] (MRSE 61589 [12]; [20]): 8 µg/mL
- MICUTBLP (MSSE 81388 [13]; [21]): 128 µg/mL
- MICUTBLP [MICcombo] (MSSE 81388 [13]; [19]): 0.25 µg/mL
- MICchloramphenicol [MICcombo] (MSSE 81388 [13]; [20]): 4 µg/mL
- MICUTBLP (E. faecalis ATCC 29212 [14]; [21]): 128 µg/mL
- MICUTBLP [MICcombo] (E. faecalis ATCC 29212 [14]; [19]): 16 µg/mL
- MICchloramphenicol [MICcombo] (E. faecalis ATCC 29212 [14]; [20]): 4 µg/mL
Structure (SMILES): CCCCCCCC(=O)NCCCC[C@H](NC(=O)CCCCCCC)C(=O)N[C@@H](CCCC[N+](C)(C)C)C(=O)N[C@@H](CCCC[N+](C)(C)C)C(=O)N[C@@H](CCCC[N+](C)(C)C)C(=O)N[C@@H](CCCC[N+](C)(C)C)C(N)=O [UTBLP 8] (Octanoyl-K(Octanoyl)[Lys(Me3)][Lys(Me3)][Lys(Me3)][Lys(Me3)]-NH2)
- Interpretation ([8]; UTBLP + novobiocin): Additive (0.5 < x ≤ 4 is additive)
- Interpretation ([8]; UTBLP + rifampicin): Additive (0.5 < x ≤ 4 is additive)
- Interpretation ([9]; UTBLP + novobiocin): Additive (0.5 < x ≤ 4 is additive)
- Interpretation ([9]; UTBLP + rifampicin): Additive (0.5 < x ≤ 4 is additive)
- Interpretation (P. aeruginosa PAO1 [10]; UTBLP + chloramphenicol): Additive (0.5 < x ≤ 4 is additive)
- Interpretation (P. aeruginosa PAO1 [10]; UTBLP + niclosamide): Additive (0.5 < x ≤ 4 is additive)
- Interpretation (P. aeruginosa PAO1 [10]; UTBLP + novobiocin): Additive (0.5 < x ≤ 4 is additive)
- Interpretation (P. aeruginosa PAO1 [10]; UTBLP + rifampicin): Additive (0.5 < x ≤ 4 is additive)
- Interpretation (E. coli 94474 [11]; UTBLP + novobiocin): Synergy (FICI ≤ 0.5 is synergistic)
- Interpretation (E. coli 94474 [11]; UTBLP + rifampicin): Additive (0.5 < x ≤ 4 is additive)
- Interpretation (E. cloacae 118564; UTBLP + novobiocin): Synergy (FICI ≤ 0.5 is synergistic)
- Interpretation (E. cloacae 118564; UTBLP + rifampicin): Additive (0.5 < x ≤ 4 is additive)
- Interpretation (MRSE 61589 [12]; UTBLP + chloramphenicol): Additive (0.5 < x ≤ 4 is additive)
- Interpretation (MSSE 81388 [13]; UTBLP + chloramphenicol): Additive (0.5 < x ≤ 4 is additive)
- Interpretation (E. faecalis ATCC 29212 [14]; UTBLP + chloramphenicol): Additive (0.5 < x ≤ 4 is additive)
